“Also recorded” adds a separate entry of the source.
What was measured:
Type in all cases: cell-based, human
[1] = system: SAE1; assay: QPCR of gene target after miR-29a overexpression in HEYA8 cells; conditions: HEYA8, forced miR-29a expression vs scrambled control and untreated
Protocol: (§1) FIG. 4: QPCR analysis showing relative quantity of selected miR-29a anti-correlated gene targets after miR29a overexpression in HEYA8 ovarian cancer cells (SCR, scrambled control; WT, untreated; two-sided t-test P<0.05, mir-29a vs SCR and miR-29a vs WT, each comparison, except for SAE1).
(§2) Total RNA (60 ng) was reverse transcribed in a 40 μl reaction using the TaqMan® MicroRNA Reverse Transcription Kit (ABI). QPCR was performed on a StepOne Real-Time PCR System (ABI) using Power-SYBR Green PCR Master Mix (ABI) in a 20 μl reaction and human ribosomal RNA 18s as an endogenous control (which was itself not miR-29a-regulated, data not shown). The QPCR experiments were run four times (separate days), each with independent biological samples (n=4 per group); within each experiment run, relative expression values were normalized to standard deviations from the mean.

[2] = system: CDC6; assay: as above; conditions: HEYA8, forced miR-29a expression vs scrambled control and untreated
Protocol: as §1, §2

[3] = system: TIMELESS; assay: as above; conditions: HEYA8, forced miR-29a expression vs scrambled control and untreated
Protocol: as §1, §2

[4] = system: MYBL2; assay: as above; conditions: HEYA8, forced miR-29a expression vs scrambled control and untreated
Protocol: as §1, §2

[5] = system: DNMT3B; assay: as above; conditions: HEYA8, forced miR-29a expression vs scrambled control and untreated
Protocol: as §1, §2

[6] = system: DNMT3A; assay: as above; conditions: HEYA8, forced miR-29a expression vs scrambled control and untreated
Protocol: as §1, §2

[7] = system: CBX1; assay: as above; conditions: HEYA8, forced miR-29a expression vs scrambled control and untreated
Protocol: as §1, §2

[8] = system: OVCAR-8 cells; assay: Proliferation/viability under cisplatin treatment after miR-29a transfection; conditions: OVCAR-8, miR-29a 72 h, cisplatin 0-7.5 μg/mL for 48 h
Protocol: (§3) FIGS. 6A-6B: Effect of miR-29a (72 h) on proliferation, under a range of concentrations of cisplatin treatment (at 48 h) of HEYA8 (FIG. 6A) and OVCAR-8 cells (FIG. 6B). Error bars are standard error. Proliferation curves of the parental HEYA8 strain treated with a scrambled control sequence and with microRNA mimics for miR-29a are shown.
(§4) The time course MTS assay experiments were run three times (separate days), each with a different set of biological quadruplicates (n=12 per group); within each experiment run, the viability measures within each time point were centered on the mean of the WT group for the first run. For cisplatin treatment, cells were transfected as described, and media was replaced after 24 hrs with media containing cisplatin (Sigma) (0-7.5 μg/mL). Viability was assayed 72 hrs post-transfection. Experiments were run three times, each with a different biological replicate (n=3 per group). For each run, viability measures within each concentration point were centered on the mean of values for the first run.

[9] = system: HEYA8 cells; assay: as above; conditions: HEYA8, miR-29a 72 h, cisplatin 0-7.5 μg/mL for 48 h, vs scrambled control at same cisplatin dosage
Protocol: as §3, §4

[10] = system: OVCAR-8 cells (p53-deficient ovarian cancer); assay: MTS proliferation assay after transient transfection of miR-29a mimic; conditions: OVCAR8, miR-29a mimic transiently transfected, vs parental strain and scrambled control, 48 h and 72 h
Protocol: (§5) For the in vitro evaluation of miR-29a on cell proliferation of ovarian cancer cells, microRNA mimics of miR-29a were transiently transfected into the p53-deficient ovarian cancer cell line OVCAR8 and the p53-wild type HEYA8 and the impact of this microRNA on cell proliferation was measured by increase in absorbance from the […].
as §4

[11] = system: HEYA8 cells (p53-wild type ovarian cancer); assay: as above; conditions: HEYA8, miR-29a mimic transiently transfected, vs parental strain and scrambled control, 48 h and 72 h
Protocol: as §5, §4

How did the “relative quantity of SAE1 transcript (QPCR)” value [1] turn out when “miR-29a: microRNA mimic of miR-29a (5′-TAGCACCATCTGAAATCGGTTA-3′, SEQ ID NO: 13), transiently transfected into ovarian cancer cells (listed as DNA, chemistry not given here)” was run?
The value was “no functional repression”.

What about the “relative quantity of CDC6 transcript (QPCR)” value [2] of the same substance?
Its value is “repressed”.

What about the “relative quantity of TIMELESS transcript (QPCR)” value [3] of the same substance?
Its value is “repressed”.

And the “relative quantity of MYBL2 transcript (QPCR)” value [4]?
Its value is “repressed”.

And the “relative quantity of DNMT3B transcript (QPCR)” value [5]?
The value was “repressed”.

And the “relative quantity of DNMT3A transcript (QPCR)” value [6]?
Its value is “repressed”.

And the “relative quantity of CBX1 transcript (QPCR)” value [7]?
Its value is “repressed”.

What about the “effect on proliferation under cisplatin treatment” value [8] of the same substance?
The value was “had an additional effect on chemotherapeutic agent cisplatin in inhibiting the growth”.

And the “effect on proliferation under cisplatin treatment” value [9]?
The value was “suppress the proliferation of HEYA8 significantly more effectively than the scrambled control; also recorded: suppresses the proliferation of HEYA8 significantly more effectively than the scrambled control”.

And the “effect on cell proliferation” value [10]?
The value was “moderately suppress cell proliferation”.

And the “effect on cell proliferation” value [11]?
The value was “very significantly suppress cell proliferation”.

Reference: patent US20120251619A1, “MicroRNA-29a,b,c as a Tumor Suppressor and Sensitizing Agent for Chemotherapy” (priority 2011, published 2012)
